Test results reported in ChEMBL document CHEMBL4765232 (J Med Chem, 2016).
Active and inactive are the calls of the source. The calls are words filed in the database; no cut-off is given here.

What was measured:
KARPAS-422 = assay: Antitumor activity against human KARPAS-422 cells harboring EZH2 Y641N mutant xenografted in CB17 SCID mouse assessed as tumor regression at 160 mg/kg, po BID and measured within 2 weeks by caliper method; format: functional, organism-based
[1] = Clearance in Beagle dog at 1 mg/kg, iv; format: ADME, organism-based, Canis lupus familiaris; settings: in vivo
[2] = Unbound clearance in Beagle dog at 1 mg/kg, iv; format: ADME, organism-based, Canis lupus familiaris; settings: in vivo
[3] = Clearance in Sprague-Dawley rat at 1 mg/kg, iv relative to liver blood flow; format: ADME, organism-based; settings: in vivo
[4] = Intrinsic clearance in mouse liver microsomes assessed per mg protein; format: ADME, Microsome
[5] = Intrinsic clearance in dog liver microsomes assessed per mg protein; format: ADME, Canis lupus familiaris, Microsome
[6] = Protein binding in dog plasma assessed as bound fraction; format: ADME, cell-free, Canis lupus familiaris; settings: read-out: PPB (converted)
[7] = Protein binding in human plasma assessed as bound fraction; format: ADME, cell-free; settings: read-out: PPB (converted)
CYP3A4 = CYP3A4 (Homo sapiens, UniProt P08684); assay: Inhibition of CYP3A4 (unknown origin) at 10 uM relative to control; format: ADME
CYP2D6 = CYP2D6 (Homo sapiens, UniProt P10635); assay: Inhibition of CYP2D6 (unknown origin) at 10 uM relative to control; format: ADME
CYP2C8 = target: T1, CYP2C8 (Homo sapiens, UniProt P10632); assay: Inhibition of CYP2C8 (unknown origin) at 10 uM relative to control; format: ADME
T1 sequence (P10632 whole entry): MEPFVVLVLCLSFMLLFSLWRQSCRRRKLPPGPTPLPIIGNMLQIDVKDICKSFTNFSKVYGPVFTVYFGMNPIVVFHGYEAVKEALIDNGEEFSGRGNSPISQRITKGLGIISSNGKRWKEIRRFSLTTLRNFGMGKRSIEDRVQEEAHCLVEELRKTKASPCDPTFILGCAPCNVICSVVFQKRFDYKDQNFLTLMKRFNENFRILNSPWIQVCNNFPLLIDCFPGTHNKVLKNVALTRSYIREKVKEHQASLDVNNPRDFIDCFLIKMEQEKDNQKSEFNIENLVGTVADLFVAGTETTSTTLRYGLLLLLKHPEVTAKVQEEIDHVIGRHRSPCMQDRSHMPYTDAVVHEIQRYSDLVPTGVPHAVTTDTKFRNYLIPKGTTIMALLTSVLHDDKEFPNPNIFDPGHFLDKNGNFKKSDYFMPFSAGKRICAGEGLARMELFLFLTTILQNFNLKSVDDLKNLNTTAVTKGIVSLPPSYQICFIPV

CYP2C9 = CYP2C9 (Homo sapiens, UniProt P11712); assay: Inhibition of CYP2C9 (unknown origin) at 10 uM relative to control; format: ADME
[8] = Unbound clearance in Balb/c mouse at 1 mg/kg, iv formulated with 5:60:35 DMA/PEG400/20% SBECD; format: ADME, organism-based; settings: in vivo
[9] = Clearance in Balb/c mouse at 1 mg/kg, iv formulated with 5:60:35 DMA/PEG400/20% SBECD relative to liver blood flow; format: ADME, organism-based; settings: in vivo
[10] = Half life in Balb/c mouse plasma at 1 mg/kg, iv formulated with 5:60:35 DMA/PEG400/20% SBECD; format: ADME, organism-based
[11] = Volume of distribution at steady in Balb/c mouse at 1 mg/kg, iv formulated with 5:60:35 DMA/PEG400/20% SBECD; format: ADME, organism-based; settings: in vivo, read-out: Vdss
[12] = Unbound AUC in Balb/c mouse at 100 mg/kg, po formulated in 0.5 % methyl cellulose maintained at pH 3 to 4; format: ADME, organism-based; settings: in vivo, pH 3, 100 mg/kg
[13] = Unbound Cmax in Balb/c mouse at 100 mg/kg, po formulated in 0.5 % methyl cellulose maintained at pH 3 to 4; format: ADME, organism-based; settings: in vivo, pH 3, 100 mg/kg
[14] = Fraction unbound in mouse plasma; format: ADME, cell-free
[15] = Toxicity in CB17 SCID mouse xenografted with human KARPAS-422 cells harboring EZH2 Y641N mutant assessed as effect body weight loss at 160 mg/kg, po BID administered for 25 days; format: organism-based; settings: in vivo, 600 h, time 25 day
[16] = Drug concentration in plasma of CB17 SCID mouse xenografted with human KARPAS-422 cells at 160 mg/kg, po BID administered for 17 days and measured up to 12 hrs post last dose by LC-MS analysis; format: ADME, organism-based; settings: time 17 day
[17] = Half life in Beagle dog plasma at 1 mg/kg, iv; format: ADME, organism-based, Canis lupus familiaris
[18] = Volume of distribution at steady state in Sprague-Dawley rat at 1 mg/kg, iv; format: ADME, organism-based; settings: in vivo, read-out: Vdss
[19] = Volume of distribution at steady state in Beagle dog at 1 mg/kg, iv; format: ADME, organism-based, Canis lupus familiaris; settings: in vivo, read-out: Vdss
[20] = AUC (0 to infinity) in Sprague-Dawley rat at 25 mg/kg, po; format: ADME, organism-based; parameters: route oral, time infinity, dose 25 mg/kg; settings: in vivo
[21] = Tmax in Sprague-Dawley rat at 25 mg/kg, po; format: ADME, organism-based; settings: in vivo
[22] = Tmax in Beagle dog at 5 mg/kg, po; format: ADME, organism-based, Canis lupus familiaris; settings: in vivo
[23] = Oral bioavailability in Sprague-Dawley rat at 25 mg/kg; format: ADME, organism-based; settings: in vivo
[24] = Oral bioavailability in Beagle dog at 5 mg/kg; format: ADME, organism-based, Canis lupus familiaris; settings: in vivo
Cytochrome P450 2C8 = target: T2, Cytochrome P450 2C8 (Homo sapiens, UniProt P10632); assay: Time dependent inhibition of CYP2C8 (unknown origin); format: ADME
T2 sequence (P10632 whole entry): T1 sequence (P10632 whole entry)

Cytochrome P450 2D6 = Cytochrome P450 2D6 (Homo sapiens, UniProt P10635); assay: Time dependent inhibition of CYP2D6 (unknown origin); format: ADME
Cytochrome P450 3A4 = Cytochrome P450 3A4 (Homo sapiens, UniProt P08684); assay: Time dependent inhibition of CYP3A4 (unknown origin); format: ADME
[25] = Toxicity in Sprague-Dawley rat at 100 to 600 mg/kg, po QD administered via gavage as single dose for 28 days; format: organism-based; settings: in vivo, 672 h, dose 100-600 mg/kg, time 28 day
[26] = target: Voltage-gated inwardly rectifying potassium channel KCNH2 (Homo sapiens, UniProt Q12809)
Chain of Voltage-gated inwardly rectifying potassium channel KCNH2 (Q12809 whole entry): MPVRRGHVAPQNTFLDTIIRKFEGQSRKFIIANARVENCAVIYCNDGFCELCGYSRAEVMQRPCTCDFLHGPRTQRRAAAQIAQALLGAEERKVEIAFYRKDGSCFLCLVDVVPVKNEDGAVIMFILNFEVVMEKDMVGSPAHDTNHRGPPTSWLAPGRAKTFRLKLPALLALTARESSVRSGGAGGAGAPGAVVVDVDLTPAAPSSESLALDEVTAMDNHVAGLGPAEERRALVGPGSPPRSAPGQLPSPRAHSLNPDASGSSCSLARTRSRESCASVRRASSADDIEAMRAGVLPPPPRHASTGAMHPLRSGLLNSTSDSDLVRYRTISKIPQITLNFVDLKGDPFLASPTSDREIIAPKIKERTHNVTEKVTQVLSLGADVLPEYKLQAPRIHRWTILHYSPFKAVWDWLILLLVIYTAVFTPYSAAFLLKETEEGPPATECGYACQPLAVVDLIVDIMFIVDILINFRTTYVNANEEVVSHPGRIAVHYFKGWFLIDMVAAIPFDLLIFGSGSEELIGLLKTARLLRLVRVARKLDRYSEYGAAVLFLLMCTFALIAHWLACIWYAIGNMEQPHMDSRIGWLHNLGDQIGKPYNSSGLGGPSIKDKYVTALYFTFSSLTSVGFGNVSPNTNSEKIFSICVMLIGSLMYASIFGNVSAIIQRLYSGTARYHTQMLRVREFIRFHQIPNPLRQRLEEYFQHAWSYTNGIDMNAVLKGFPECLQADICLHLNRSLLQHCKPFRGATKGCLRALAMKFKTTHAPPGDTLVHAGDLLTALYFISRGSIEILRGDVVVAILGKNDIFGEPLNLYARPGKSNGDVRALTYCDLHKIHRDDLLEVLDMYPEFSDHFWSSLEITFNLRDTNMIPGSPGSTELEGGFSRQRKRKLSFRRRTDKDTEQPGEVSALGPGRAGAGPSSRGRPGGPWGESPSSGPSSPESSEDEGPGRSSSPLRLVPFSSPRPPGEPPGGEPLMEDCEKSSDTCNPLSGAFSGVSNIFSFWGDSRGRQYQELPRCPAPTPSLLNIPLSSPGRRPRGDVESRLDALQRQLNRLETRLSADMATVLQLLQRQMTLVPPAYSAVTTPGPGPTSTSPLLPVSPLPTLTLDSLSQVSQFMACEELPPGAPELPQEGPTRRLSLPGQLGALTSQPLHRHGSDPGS
Description: Binding affinity to human ERG

Chain of CYP2C9 (P11712 whole entry): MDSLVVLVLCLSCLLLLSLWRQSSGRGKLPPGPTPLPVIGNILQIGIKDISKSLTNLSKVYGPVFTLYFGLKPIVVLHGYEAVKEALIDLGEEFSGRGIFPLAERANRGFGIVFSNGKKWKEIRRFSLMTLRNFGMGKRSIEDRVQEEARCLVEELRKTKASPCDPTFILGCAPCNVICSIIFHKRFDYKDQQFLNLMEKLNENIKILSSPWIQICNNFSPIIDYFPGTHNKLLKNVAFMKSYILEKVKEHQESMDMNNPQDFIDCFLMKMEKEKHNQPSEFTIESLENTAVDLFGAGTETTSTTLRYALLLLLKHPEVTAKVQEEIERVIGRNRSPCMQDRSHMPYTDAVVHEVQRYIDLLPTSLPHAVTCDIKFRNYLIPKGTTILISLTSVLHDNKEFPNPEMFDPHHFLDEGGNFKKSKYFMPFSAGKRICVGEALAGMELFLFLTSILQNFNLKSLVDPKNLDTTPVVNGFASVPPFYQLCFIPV
Chain of Cytochrome P450 3A4 (P08684 whole entry): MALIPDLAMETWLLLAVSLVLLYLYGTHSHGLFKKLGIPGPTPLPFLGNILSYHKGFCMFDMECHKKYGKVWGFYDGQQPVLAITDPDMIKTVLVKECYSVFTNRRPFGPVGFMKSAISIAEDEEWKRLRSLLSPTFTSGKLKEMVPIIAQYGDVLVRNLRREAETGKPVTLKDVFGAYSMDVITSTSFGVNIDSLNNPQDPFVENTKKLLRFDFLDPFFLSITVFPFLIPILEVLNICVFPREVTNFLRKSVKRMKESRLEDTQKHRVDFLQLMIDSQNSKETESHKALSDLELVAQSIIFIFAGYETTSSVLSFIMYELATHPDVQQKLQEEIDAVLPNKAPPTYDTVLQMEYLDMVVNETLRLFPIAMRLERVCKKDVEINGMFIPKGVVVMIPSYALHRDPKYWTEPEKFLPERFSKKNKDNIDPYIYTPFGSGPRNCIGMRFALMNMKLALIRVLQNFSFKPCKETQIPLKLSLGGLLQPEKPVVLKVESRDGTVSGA
Chain of CYP3A4 (P08684 whole entry): as above
Chain of Cytochrome P450 2D6 (P10635 whole entry): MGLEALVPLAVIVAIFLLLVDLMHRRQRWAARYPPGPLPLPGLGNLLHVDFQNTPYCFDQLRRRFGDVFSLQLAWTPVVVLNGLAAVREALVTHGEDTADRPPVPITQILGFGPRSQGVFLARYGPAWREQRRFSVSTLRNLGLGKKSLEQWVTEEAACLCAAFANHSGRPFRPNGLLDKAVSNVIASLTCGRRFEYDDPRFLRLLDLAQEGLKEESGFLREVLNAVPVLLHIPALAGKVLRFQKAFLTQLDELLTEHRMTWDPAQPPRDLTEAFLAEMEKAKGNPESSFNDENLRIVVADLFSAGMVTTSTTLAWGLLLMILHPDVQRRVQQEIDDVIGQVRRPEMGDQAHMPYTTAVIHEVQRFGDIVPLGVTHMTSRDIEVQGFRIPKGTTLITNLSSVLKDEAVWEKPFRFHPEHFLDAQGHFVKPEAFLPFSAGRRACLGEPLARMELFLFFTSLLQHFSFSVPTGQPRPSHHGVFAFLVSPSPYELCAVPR
Chain of CYP2D6 (P10635 whole entry): as above

With `COc1cc(C)[nH]c(=O)c1CNC(=O)c1c(C)n([C@H](C)C2CCN(CC(F)(F)F)CC2)c2ccccc12` [CPI-1205] the Activity (KARPAS-422) was “Active”, the clearance [1] was 23.5 mL/min/kg and the CL free [2] was 242 mL/min/kg. The CL [3] was 97%, the CLH [4] was 159 µL/min and the CLH [5] was 73.9 µL/min. It also gave a fraction unbound [6] of 0.097, a fraction unbound [7] of 0.072 and an inhibition at 10 µM (CYP3A4) of 0%. It also gave an inhibition at 10 µM (CYP2D6) of 9.5%, an inhibition at 10 µM (CYP2C8) of 41% and an inhibition at 10 µM (CYP2C9) of 11.1%. It also gave a CL free [8] of 1715 mL/min/kg, a CL [9] of 40% and a half-life [10] of 1.63 h. The Vd [11] was 1.36 L/kg, the fAUC [12] was 1.87 µM·h and the fCmax [13] was 1.41 µM. For the same molecule, the Fu [14] was 0.021%, the Activity [15] was “Non-Toxic” and the concentration at 408 h [16] was 11400 ng/mL. For the same molecule, the half-life [17] was 1.84 h, the Vd [18] was 2.22 L/kg and the Vd [19] was 1.6 L/kg. For the same molecule, the AUC(0-inf) [20] was 7.06 µM·h, the Tmax [21] was 0.5 h and the Tmax [22] was 1.67 h. For the same molecule, the F [23] was 44.6%, the F [24] was 46.2% and the TDI (Cytochrome P450 2C8) was “Not Active”. The TDI (Cytochrome P450 2D6) was “Not Active”, the TDI (Cytochrome P450 3A4) was “Not Active” and the Activity [25] was “Non-Toxic”. It also gave an IC50 [26] of 21.3 µM.
